Assay results reported in ChEMBL document CHEMBL1131949, “Stereoselective synthesis and receptor activity of conformationally defined retinoid X receptor selective ligands” (Bioorg Med Chem Lett, 1999).

What was measured:
[1] = molecular target: T1, Retinoic acid receptor RXR-beta (Homo sapiens, UniProt P28702); test: Inhibition of [3H]-9-cis RA binding to Retinoid X receptor RXR beta
T1 sequence (P28702 whole entry): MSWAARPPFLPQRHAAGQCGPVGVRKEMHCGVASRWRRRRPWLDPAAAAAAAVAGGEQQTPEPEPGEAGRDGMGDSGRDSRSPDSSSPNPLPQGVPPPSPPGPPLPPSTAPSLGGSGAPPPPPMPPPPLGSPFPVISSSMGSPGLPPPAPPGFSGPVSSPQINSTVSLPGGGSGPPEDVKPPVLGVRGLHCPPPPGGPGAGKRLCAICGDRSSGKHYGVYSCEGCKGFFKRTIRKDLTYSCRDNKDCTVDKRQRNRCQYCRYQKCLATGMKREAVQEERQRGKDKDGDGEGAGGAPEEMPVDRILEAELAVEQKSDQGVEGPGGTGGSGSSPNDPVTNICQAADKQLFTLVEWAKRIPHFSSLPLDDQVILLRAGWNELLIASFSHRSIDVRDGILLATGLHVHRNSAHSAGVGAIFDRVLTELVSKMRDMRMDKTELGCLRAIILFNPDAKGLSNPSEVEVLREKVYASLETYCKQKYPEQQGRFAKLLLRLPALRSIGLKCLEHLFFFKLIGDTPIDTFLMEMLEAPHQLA

[2] = molecular target: T2, Retinoic acid receptor RXR-gamma (Homo sapiens, UniProt P48443); test: Inhibition of [3H]-9-cis RA binding to Retinoid X receptor RXR gamma
T2 sequence (P48443 whole entry): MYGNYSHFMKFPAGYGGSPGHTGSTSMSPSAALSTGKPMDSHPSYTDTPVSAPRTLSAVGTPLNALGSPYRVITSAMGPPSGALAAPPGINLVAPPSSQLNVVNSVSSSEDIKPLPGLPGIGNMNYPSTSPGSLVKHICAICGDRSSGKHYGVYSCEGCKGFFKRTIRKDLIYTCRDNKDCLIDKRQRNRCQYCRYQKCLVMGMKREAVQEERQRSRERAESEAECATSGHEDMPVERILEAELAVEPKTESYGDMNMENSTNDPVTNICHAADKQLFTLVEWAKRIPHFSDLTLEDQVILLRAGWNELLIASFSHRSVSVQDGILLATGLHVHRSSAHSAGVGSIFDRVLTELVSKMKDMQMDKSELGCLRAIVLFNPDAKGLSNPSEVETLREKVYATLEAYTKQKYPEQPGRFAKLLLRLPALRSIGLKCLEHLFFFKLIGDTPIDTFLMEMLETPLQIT

For `CC1=C(/C=C/c2ccccc2/C=C/C(C)=C/C(=O)O)C(C)(C)CCC1`, the Kd [1] was 0.053 µM and the Kd [2] was 0.035 µM.
In the case of `CC1=C(/C=C/c2occc2/C=C/C(C)=C/C(=O)O)C(C)(C)CCC1`, the Kd [1] is reported as 0.015 µM and the Kd [2] is reported as 0.014 µM.
